We go through three compounds from patent US20110060000A1, “ACRIDINE ANALOGS IN THE TREATMENT OF GLIOMAS” (priority 2009, published 2011).

Entries after “also recorded” stand apart in the source; their conditions may differ.

As usually defined, the EC50 is the midpoint of the concentration-response curve.

The test system of one data set is astrocytes. The data set can be described thus: [Ca2+]i measurement in astrocytes. In kind it is cell-based, rat. The source says:
(§1) (Statistical analysis it is shown in the inset. Values at the peak of the response have been analyzed using ANOVA followed by T-test, ** indicate P<0.01.).
(§2) Ca^2+ mobilization from ER was caused using an agonist acting via inositol trisphosphate elevation, mimicking physiological responses. In these conditions the dynamics of Ca^2+ transients were observe in these two cell lines. It appears evident that the plateau phase in C6 is consistently larger than in astrocytes.
(§3) Panel A: Challenge of astrocytes with ATP show the unchanged typical spike and plateau response. Panel B: In C6 an oscillatory pattern is readily detectable in response to treatment with TUN.
Tools and protocols have been developed to cleanly observe capacitative Ca^2+ entry (CCE), the phenomenon that allows the replenishment of intracellular Ca^2+ (ICS) stores and make quantitative and qualitative assessments. In particular, in astrocytes, capacitative Ca^2+ entry happens in absence of cytoplasmic Ca^2+ concentration ([Ca^2+]i) elevation (Grimaldi; 2006)(FIG. 1). […]
(§4) This phase is dependent on the balance of Ca^2+ influx triggered by store depletion and the reuptake in the ER due to SERCA activity. […] To investigate the role of influx triggered by ICS depletion, CCE was analyzed following THAP-induced depletion of ICS. […]

Data set [1] relates to caspase 12. The data set can be described thus: Procaspase 12 cleavage in C6. In kind it is cell-based, rat. The method, then: (§5) Cells were treated with the agents as indicated in the x axis. Subsequently cells were harvested and protein was extracted and then separated via SDS-PAGE and immunoblotted. The arrow highlights the 45 kDa band that results from cleavage of procaspase 12 and corresponding to the active caspase.
(§6) Thereafter, cells were harvested and protein extracted. Procaspase 12 band at 65 kDa was identified. In some of the treatments, the active product at 45 kDa was also detected. […] Conversely, in C6, higher GRP78 levels and the cell environment reflect significant caspase activation. […] Caspase activation in ERSR conditions was also confirmed with a TUNEL based apoptosis detection system in C6. C6 were treated with THAP for 24 hours and thereafter processed for TUNEL accordingly to manufacturer instructions. Staurosporin, a well known inducer of apoptosis in glial cells, was also included as a positive control. High resolution images of the experiments were acquired and image morphometric analysis was performed to determine quantitative parameters of the staining as previously described (Pascale et al., 2004, “Translocation of protein kinase C-betaII in astrocytes requires organized actin cytoskeleton and is not accompanied by synchronous RACK1 relocation.” Glia 46(2): 169-82). […]

For data set [2], the system named is GRP78. The data set can be described thus: GRP78 protein expression (SDS-PAGE, immunoblot) in astrocytes. In kind it is cell-based, rat. Conditions: for GRP78 levels in astrocytes after challenge: brief exposure (8 h), FIG. 11; for GRP78 protein expression in astrocytes: graded concentrations, THAP 24 hours, TUN 8 hours. The method, then: (§7) Astrocytes and C6 were exposed to graded concentration of THAP as indicated in the captions for 24 hours. Thereafter, protein were extracted and run on a SDS-PAGE and immunoblotted with an anti-GRP78 antibody. Filters were exposed to ECL and films were impressed and developed (Panel B). Films were digitalized using a high resolution scanner and analyzed used imageJ (NIH). Densitometric values were averaged and plotted in the graph (Panel A). Loading conditions were checked using GAPDH housekeeping gene.
(§8) Astrocytes and C6 were exposed to TUN for 8 hours at concentrations ranging from 1.25 μg/ml to 10 μg/ml. Proteins were extracted, separated on a SDS-PAGE and immunoblotted. Filters were exposed to ECL and used to impress films (Panel B). Developed films were subsequently digitized with a high resolution scanner and analyzed with the software ImageJ (NIH). Densitometric values were averaged and plotted in the graph (Panel A).
(§9) Cells were treated as specified in the graph labeling. It is evident that glioma cells have enhanced GRP78 expression than astrocytes regardless of the challenging agent. N.T.=untreated; D=DMSO; T=TUN; Th=THAP.
A general note: Immunoblotting shows a protein as a band on a membrane.

Data set [3] relates to GRP78. The data set can be described thus: GRP78 protein expression (SDS-PAGE, immunoblot) in C6. The note with it: for GRP78 expression in C6 after challenge: brief exposure (8 h), FIG. 11; for GRP78 protein expression in C6: graded concentrations, THAP 24 hours, TUN 8 hours. The class given is cell-based, rat. The method, then: as §7, §8, §9
The subject of a further data set is C6. Nature of the data set: [Ca2+]i measurement in C6. In kind it is cell-based, rat.
Source text: as §1, §2, §3
Tools and protocols have been developed to cleanly observe capacitative Ca^2+ entry (CCE), the phenomenon that allows the replenishment of intracellular Ca^2+ (ICS) stores and make quantitative and qualitative assessments. In particular, in astrocytes, capacitative Ca^2+ entry happens in absence of cytoplasmic Ca^2+ concentration ([Ca^2+]i) elevation (Grimaldi; 2006)(FIG. 1). […] The study was designed to investigate if there was a difference between astrocytes and glial cancer cells in this distinctive homeostatic pattern. The findings presented in this study, indicate that there are striking differences between glial cells and their cancer counterpart. The model utilizes rat cells but the observations extend and apply to human glioma cells as well. When the responses of normal astrocytes and C6 cells to thapsigargin (THAP), an agent able to block SERCA, therefore causing the release of Ca^2+ from the ER, were compared it was evident that C6 was more sensitive to the THAP (FIG. 2). However, the difference can be ascribed to one of many possibilities. […]
as §4

Data set [4] relates to caspase 12. The data set can be described thus: Procaspase 12 cleavage in astrocytes. In kind it is cell-based, rat. As for the experimental part:
as §5, §6

The conditions of data set [5]: intrapleural, 100 mg/day in 50 ml saline for 4 days; cited from earlier work.
The subject of another data set is tumor cells. Conditions: in vitro and in vivo; cited from earlier work.
For the next data set, the system named is C6 cells. Conditions: tested at less than 1 μM; cited from earlier work.
A further data set relates to platelets. The note with it: cited from earlier work.
A further data set deals with p53. The note with it: cited from earlier work.

As for tunicamycin, the “Ca2+ transients in astrocytes after TUN pretreatment” value in the data set on astrocytes (challenge with ATP) is on record as “transients were not changed”. For the same compound, the “activation of caspase 12 (45 kDa active product) in C6” value with caspase 12 [1] is recorded as “significant activation of caspase 12”. In addition, in the data set with GRP78 [2], the “GRP78 levels in astrocytes after challenge” value was “always significantly lower than levels reached in C6 and U87-MG”; the “GRP78 protein expression in astrocytes” value is listed as “concentration related elevation of GRP78 protein expression”. In addition, in the data set with GRP78 [3], the “GRP78 expression in C6 after challenge” value is given as “enhanced significantly” and the “GRP78 protein expression in C6” value is recorded as “concentration related elevation of GRP78 protein expression; also recorded: larger in C6 than in astrocytes at every concentration tested”. The “Ca2+ transients in C6 after TUN pretreatment” value in the data set on C6 (challenge with ATP) is “appearance of [Ca^2+]i oscillations at high frequency and high amplitude”. The “activation of caspase 12 in astrocytes” value with caspase 12 [4] was “completely unresponsive”.

For `CCN(CC)CCCC(C)Nc1c2ccc(Cl)cc2nc2ccc(OC)cc12` (stereo not shown) [quinacrine], the peak concentration entry in data set [5] is given as “less than 10 ng/ml”. Moreover, the “toxicity to tumor versus normal cells” value with tumor cells is on record as “more toxic to tumor than to normal cells”. Further, the “killing of C6 cells” value in the data set on C6 cells is listed as “ineffective in killing C6 cells”. Besides, the “alpha-granule release reaction of platelets” value in the data set with platelets was “prevent the alpha-granule release reaction of platelets”. The “p53 activation and p53-dependent killing of tumor cell types” value with p53 was “capable of p53 activation and p53-dependent killing”.

For the compound `C/C=C(/C)C(=O)O[C@H]1C(C)=C2[C@H]([C@@H]1OC(=O)CCCCCCC)[C@@](C)(OC(C)=O)C[C@H](OC(=O)CCC)[C@@]1(O)[C@H]2OC(=O)[C@@]1(C)O` [THAP, thapsigargin], the “[Ca2+]i elevation in astrocytes” value in the data set on astrocytes (2 μM THAP) is “caused elevation of [Ca^2+]i”. The “activation of caspase 12 (45 kDa active product) in C6” value in the data set with caspase 12 [1] is “significant activation of caspase 12”. Further, in the data set on GRP78 [2], the “GRP78 levels in astrocytes after challenge” value was “always significantly lower than levels reached in C6 and U87-MG”; the “GRP78 protein expression in astrocytes” value is reported as “increased GRP78 expression”. The EC50 in the data set with GRP78 [3] (Rattus norvegicus, Astrocyte, stated in GRP78 expression experiment, astrocytes and C6, read-out: EC50 of the substance) was 2 to 5 nM. Further, in the data set with GRP78 [3], the “GRP78 expression in C6 after challenge” value is listed as “enhanced significantly” and the “GRP78 protein expression in C6” value is listed as “stronger elevation; also recorded: dramatically higher elevation of GRP78”. Further, the “[Ca2+]i elevation in C6” value with C6 (2 μM THAP) was “significantly higher than in astrocytes”. In the data set on caspase 12 [4], the “activation of caspase 12 in astrocytes” value was “completely unresponsive”.
